Key:
[1] = tested on: HBP-induced increase in EC permeability; assay: Inhibition of HBP-induced increase in EC permeability; type: cell-based, human, bovine; conditions: aprotinin 100 μg/ml, 30 min pre-incubation; HBP 75 μg/ml; N=6
Excerpt: Alternatively, HBP antagonists may be detected by culturing endothelial cells in the presence of HBP and in the presence and absence of a substance suspected of being an antagonist. In a specific embodiment, the antagonist is a monoclonal antibody that binds to at least one epitope of HBP, preferably human HBP, wherein said epitope binds to prekallikrein-H-kininogen complex and activates release of bradykinin. In a preferred embodiment, the monoclonal antibody is a human monoclonal antibody. In one embodiment, the antibody and HBP are preincubated together before incubating with endothelial cells for about 10 minutes at 37° C. The effect of the substance on the permeability of endothelial cells is determined by measuring transendothelial electrical resistance or determining albumin clearance as described in the Examples, infra. A decrease in permeability would indicate that the substance does act as an HBP antagonist.
For measurement of electrical resistance across the EC monolayer, the filter insert is transferred to a resistance measurement chamber (ENDOHM-12; World Precision Instruments, Sarasota, Fla., USA) modified so as to assure exact positioning of the electrodes in relation to each other and to the filter insert during repeated measurements. The chamber (lower compartment) and the filter insert (upper compartment) are filled with 2 ml and 400 μl culture medium, respectively. […] Direct readings of the electrical resistance are given by an ohmmeter (EVOM; World Precision Instruments, Sarasota, Fla., USA) connected to the electrodes of the resistance chamber. The electrical resistance of individual EC monolayers is obtained by subtracting the resistance of the corresponding naked filter coated with Biomatrix as measured prior to seeding of the endothelial cells.
Evans blue dye-conjugated albumin (EBA) is used as a marker for macromolecular permeability of the EC monolayers. […] In experiments where albumin permeability is analyzed, the culture medium in the upper compartment is exchanged for medium containing EBA. […]

HBP mutant (G175N) = target: T1, HBP mutant (G175N) (Homo sapiens, UniProt P20160, G201N); assay: Aprotinin effect on leakage induced by HBP mutant (G175N); type: cell-based; conditions: leakage model
T1 sequence (P20160 27-248 G201N): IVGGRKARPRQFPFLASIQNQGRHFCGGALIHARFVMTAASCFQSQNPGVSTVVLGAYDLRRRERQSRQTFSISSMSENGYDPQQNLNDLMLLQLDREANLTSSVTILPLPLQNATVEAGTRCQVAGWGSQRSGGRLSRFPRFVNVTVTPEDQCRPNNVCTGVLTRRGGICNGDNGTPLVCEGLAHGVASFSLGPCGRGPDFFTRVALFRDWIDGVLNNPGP

HBP = target: T2, HBP (Homo sapiens, UniProt P20160); conditions: cited from earlier work
T2 sequence (P20160 27-248): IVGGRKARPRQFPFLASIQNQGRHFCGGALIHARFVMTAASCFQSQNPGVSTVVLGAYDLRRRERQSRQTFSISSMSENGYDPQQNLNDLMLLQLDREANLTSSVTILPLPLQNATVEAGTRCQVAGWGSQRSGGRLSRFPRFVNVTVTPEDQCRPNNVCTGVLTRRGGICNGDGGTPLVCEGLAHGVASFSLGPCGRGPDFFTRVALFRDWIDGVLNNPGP

vascular permeability = conditions: cited from earlier work
[2] = 3H-LPS binding to HBP, scintillation proximity assay; conditions: up to 50 mM unlabeled BPTI
Description: The affinity for lipopolysaccharide (3H-LPS) is measured by scintillation proximity assay technology (SPA) as described (Linde, V., Bjørn, S., Kastrup, J. S., and Flodgaard, H., 2000, Biotechniques 28:218-222). All samples are repeated in triplicates.

endothelial cell = conditions: hypoxic cold storage in organ preservation solutions; cited from earlier work
[3] = tested on: kallikrein-C1-inhibitor and C1-C1-inhibitor complexes; conditions: cited from earlier work
[4] = after cardiac operations; cited from earlier work
[5] = tested on: bradykinin-induced increase in EC permeability; assay: Inhibition of bradykinin-induced increase in EC permeability; type: cell-based, human, bovine; conditions: aprotinin 100 μg/ml; subsequent bradykinin 100 nM
Description: For measurement of electrical resistance across the EC monolayer, the filter insert is transferred to a resistance measurement chamber (ENDOHM-12; World Precision Instruments, Sarasota, Fla., USA) modified so as to assure exact positioning of the electrodes in relation to each other and to the filter insert during repeated measurements. The chamber (lower compartment) and the filter insert (upper compartment) are filled with 2 ml and 400 μl culture medium, respectively. All measurements are made at 37° C. with the equipment placed in a cell culture incubator. Direct readings of the electrical resistance are given by an ohmmeter (EVOM; World Precision Instruments, Sarasota, Fla., USA) connected to the electrodes of the resistance chamber. The electrical resistance of individual EC monolayers is obtained by subtracting the resistance of the corresponding naked filter coated with Biomatrix as measured prior to seeding of the endothelial cells.
Before transferring the filter inserts to the resistance measurement chamber (kept at 37° C.), the medium in the insert and in the chamber is replaced with fresh culture medium (37° C.) supplemented with 10 mM Hepes. HBP (25-100 μg/ml) or PMN secretion product is added either to the upper or the lower compartment and change in transendothelial electrical resistance is measured every minute until a plateau phase is reached, and thereafter at 5-min intervals. In separate experiments, PMNs (2×10^6) preincubated with mAb IB4 (10 μg/ml) are added to the upper compartment (PMN:EC ratio=10:1) and allowed to sediment for 10 min. Activation of the PMNs is induced through antibody crosslinking of leukocytic CD18 by addition of goat anti-mouse IgG F(ab′)2 diluted 1:20. In experiments where albumin permeability across the EC monolayer is studied, the medium in the insert contained EBA. During the experiment, the filter insert is moved at 5-10 min intervals to new wells containing fresh medium. All incubations are made at 37° C. After the experiment, the medium in the lower wells is aspirated and analyzed for EBA content.

aprotinin = aprotinin (Bos taurus, UniProt P00974); assay: Ability of HBP variants to bind aprotinin; type: binding
EC permeability = assay: Leakage model: bradykinin release and EC permeability induced by HBP variants; type: cell-based

## aprotinin
[1]
  effect on HBP-induced increase in EC permeability: largely prevented
HBP mutant (G175N)
  effect of aprotinin on mutant-induced leakage: no inhibitory effect
HBP
  Kd: 100 nM
Vascular permeability
  vascular permeability and neutrophil count: decreased this vascular permeability and neutrophil count
[2]
  competition for 3H-LPS binding to native HBP: no inhibitory effects
Endothelial cell
  endothelial cell viability: increases endothelial cell viability
[3]
  kallikrein-C1-inhibitor and C1-C1-inhibitor complexes: decrease
[4]
  blood loss: reduces blood loss
  postoperative bleeding time: decreases the elevated postoperative bleeding time
[5]
  effect on bradykinin-induced permeability change: but not the permeability change induced by subsequent administration of bradykinin

B1: HBP mutant (G175N): HBP mutant unable to bind aprotinin, three dimensional structure unaltered (protein)
chain: IVGGRKARPRQFPFLASIQNQGRHFCGGALIHARFVMTAASCFQSQNPGVSTVVLGAYDLRRRERQSRQTFSISSMSENGYDPQQNLNDLMLLQLDREANLTSSVTILPLPLQNATVEAGTRCQVAGWGSQRSGGRLSRFPRFVNVTVTPEDQCRPNNVCTGVLTRRGGICNGDNGTPLVCEGLAHGVASFSLGPCGRGPDFFTRVALFRDWIDGVLNNPGP
aprotinin
  ability to bind aprotinin: unable to bind aprotinin
EC permeability
  induction of bradykinin release and EC permeability: induces bradykinin release and increase in EC permeability

From patent publication US20080279856A1, “Inhibition of Bradykinin Release” (Novo Nordisk Pharmaceuticals, Inc., priority 1999, published 2008)
